Laboratory results taken from the NIST ThermoML archive (doi:10.1016/j.jct.2012.11.014).

Assay: xn = mol fraction of the nth substance listed
Details: 101 kPa, Liquid; for speed of sound: Frequency=2 MHz, Linear variable-path acoustic interferometer; for viscosity: Oscillating disk viscometry; for mass density: Vibrating tube method

C[NH+](C)C.O=P([O-])(O)O [trimethylammonium dihydrogen phosphate] + C[S+](C)[O-]
Details	mass density [kg/m3]	speed of sound [m/s]	viscosity [mPa·s]
298.15 K, x1 = 0.0264	1101.75	1494	2.17
298.15 K, x1 = 0.0397	1104.69	1493	2.25
298.15 K, x1 = 0.0708	1111.45	1492	2.45
298.15 K, x1 = 0.1172	1121.12	1494	2.74
298.15 K, x1 = 0.1673	1130.48	1496	3.05
298.15 K, x1 = 0.2284	1141.05	1502	3.41
298.15 K, x1 = 0.2934	1153.02	1510	3.79
298.15 K, x1 = 0.3413	1160.74	1518	4.07
298.15 K, x1 = 0.4012	1172.7	1527	4.41
298.15 K, x1 = 0.4659	1185.32	1540	4.77
298.15 K, x1 = 0.5306	1199.2	1554	5.12
298.15 K, x1 = 0.6022	1215.92	1570	5.51
298.15 K, x1 = 0.6728	1235.08	1587	5.89
298.15 K, x1 = 0.7504	1257.14	1608	6.3
298.15 K, x1 = 0.8137	1278.01	1624	6.64
298.15 K, x1 = 0.8805	1302.18	1641	6.99
298.15 K, x1 = 0.9643	1337.27	1662	7.45
298.15 K, x1 = 0.9858	1347.05	1668	7.56
298.15 K, x1 = 1	1353.61	1672	7.64
303.15 K, x1 = 0.0264	1099.07	1471	1.95
303.15 K, x1 = 0.0397	1102.31	1471	2.02
303.15 K, x1 = 0.0708	1109.32	1471	2.18
303.15 K, x1 = 0.1172	1119.09	1474	2.43
303.15 K, x1 = 0.1673	1128.56	1477	2.69
303.15 K, x1 = 0.2284	1139.84	1483	2.99
303.15 K, x1 = 0.2934	1151.1	1491	3.31
303.15 K, x1 = 0.3413	1160.68	1499	3.53
303.15 K, x1 = 0.4012	1171.28	1510	3.81
303.15 K, x1 = 0.4659	1184.46	1523	4.11
303.15 K, x1 = 0.5306	1198.94	1537	4.4
303.15 K, x1 = 0.6022	1214.84	1554	4.72
303.15 K, x1 = 0.6728	1233.24	1572	5.02
303.15 K, x1 = 0.7504	1256.51	1592	5.36
303.15 K, x1 = 0.8137	1276.03	1610	5.64
303.15 K, x1 = 0.8805	1302.06	1627	5.93
303.15 K, x1 = 0.9643	1336.07	1649	6.3
303.15 K, x1 = 0.9858	1344.82	1656	6.4
303.15 K, x1 = 1	1350.62	1660	6.46
308.15 K, x1 = 0.0264	1093.45	1459	1.78
308.15 K, x1 = 0.0397	1096.91	1460	1.83
308.15 K, x1 = 0.0708	1104.49	1461	1.97
308.15 K, x1 = 0.1172	1114.06	1464	2.18
308.15 K, x1 = 0.1673	1124.47	1468	2.41
308.15 K, x1 = 0.2284	1136.12	1475	2.67
308.15 K, x1 = 0.2934	1147.36	1485	2.94
308.15 K, x1 = 0.3413	1157.63	1492	3.13
308.15 K, x1 = 0.4012	1167.76	1504	3.37
308.15 K, x1 = 0.4659	1181.31	1518	3.62
308.15 K, x1 = 0.5306	1196.24	1531	3.86
308.15 K, x1 = 0.6022	1214.48	1548	4.13
308.15 K, x1 = 0.6728	1232.06	1567	4.38
308.15 K, x1 = 0.7504	1256.27	1588	4.67
308.15 K, x1 = 0.8137	1276.94	1605	4.91
308.15 K, x1 = 0.8805	1301.06	1625	5.16
308.15 K, x1 = 0.9643	1334.09	1649	5.47
308.15 K, x1 = 0.9858	1342.26	1656	5.56
308.15 K, x1 = 1	1347.59	1661	5.61
313.15 K, x1 = 0.0264	1089.15	1442	1.65
313.15 K, x1 = 0.0397	1092.77	1443	1.7
313.15 K, x1 = 0.0708	1100.69	1444	1.83
313.15 K, x1 = 0.1172	1109.86	1449	2.02
313.15 K, x1 = 0.1673	1121.53	1452	2.22
313.15 K, x1 = 0.2284	1134.54	1460	2.45
313.15 K, x1 = 0.2934	1145.27	1471	2.69
313.15 K, x1 = 0.3413	1156.54	1479	2.86
313.15 K, x1 = 0.4012	1167.52	1493	3.07
313.15 K, x1 = 0.4659	1181.73	1507	3.3
313.15 K, x1 = 0.5306	1196.14	1522	3.51
313.15 K, x1 = 0.6022	1214.06	1540	3.75
313.15 K, x1 = 0.6728	1232.95	1560	3.98
313.15 K, x1 = 0.7504	1256.04	1581	4.24
313.15 K, x1 = 0.8137	1276.61	1601	4.44
313.15 K, x1 = 0.8805	1299.14	1623	4.67
313.15 K, x1 = 0.9643	1331.48	1651.4	4.95
313.15 K, x1 = 0.9858	1339.35	1659	5.02
313.15 K, x1 = 1	1344.52	1664	5.07

C[NH+](C)C.O=S(=O)([O-])O [trimethylammonium hydrogen sulfate] + C[S+](C)[O-]
Details	mass density [kg/m3]	speed of sound [m/s]	viscosity [mPa·s]
298.15 K, x1 = 0.013	1102.89	1498	2.07
298.15 K, x1 = 0.0356	1115.76	1499	2.23
298.15 K, x1 = 0.0539	1125.92	1501	2.36
298.15 K, x1 = 0.0982	1149.81	1504	2.62
298.15 K, x1 = 0.1259	1164.24	1507	2.75
298.15 K, x1 = 0.1608	1181.78	1511	2.91
298.15 K, x1 = 0.1982	1199.92	1514	3.09
298.15 K, x1 = 0.2422	1220.26	1519	3.3
298.15 K, x1 = 0.2956	1243.91	1522	3.52
298.15 K, x1 = 0.3855	1281.02	1528	3.84
298.15 K, x1 = 0.4611	1309.82	1533	4.07
298.15 K, x1 = 0.545	1339.48	1536	4.3
298.15 K, x1 = 0.6387	1370.13	1542	4.51
298.15 K, x1 = 0.7076	1391.08	1546	4.64
298.15 K, x1 = 0.7823	1412.52	1548	4.78
298.15 K, x1 = 0.8444	1429.25	1552	4.86
298.15 K, x1 = 0.907	1445.39	1556	4.95
298.15 K, x1 = 0.9524	1456.38	1559	5.02
298.15 K, x1 = 1	1467.58	1564	5.1
303.15 K, x1 = 0.013	1099.96	1475	1.89
303.15 K, x1 = 0.0356	1112.84	1477	2.03
303.15 K, x1 = 0.0539	1122.95	1479	2.15
303.15 K, x1 = 0.0982	1146.81	1485	2.39
303.15 K, x1 = 0.1259	1161.18	1488	2.54
303.15 K, x1 = 0.1608	1178.69	1492	2.69
303.15 K, x1 = 0.1982	1196.87	1496	2.85
303.15 K, x1 = 0.2422	1217.02	1501	3.02
303.15 K, x1 = 0.2956	1240.65	1506	3.22
303.15 K, x1 = 0.3855	1277.68	1514	3.51
303.15 K, x1 = 0.4611	1306.38	1522	3.71
303.15 K, x1 = 0.545	1336.01	1528	3.88
303.15 K, x1 = 0.6387	1366.49	1532	4.05
303.15 K, x1 = 0.7076	1387.36	1538	4.15
303.15 K, x1 = 0.7823	1408.73	1540	4.26
303.15 K, x1 = 0.8444	1425.42	1545	4.32
303.15 K, x1 = 0.907	1441.51	1551	4.38
303.15 K, x1 = 0.9524	1452.45	1556	4.43
303.15 K, x1 = 1	1463.57	1560	4.48
308.15 K, x1 = 0.013	1093.72	1462	1.75
308.15 K, x1 = 0.0356	1106.81	1466	1.88
308.15 K, x1 = 0.0539	1116.99	1469	1.99
308.15 K, x1 = 0.0982	1141.18	1476	2.23
308.15 K, x1 = 0.1259	1155.67	1478	2.35
308.15 K, x1 = 0.1608	1173.53	1484	2.51
308.15 K, x1 = 0.1982	1191.94	1490	2.67
308.15 K, x1 = 0.2422	1212.56	1494	2.82
308.15 K, x1 = 0.2956	1236.49	1500	3
308.15 K, x1 = 0.3855	1274.01	1510	3.24
308.15 K, x1 = 0.4611	1303.22	1516	3.41
308.15 K, x1 = 0.545	1333.32	1524	3.54
308.15 K, x1 = 0.6387	1364.4	1530	3.68
308.15 K, x1 = 0.7076	1385.63	1534	3.73
308.15 K, x1 = 0.7823	1407.49	1538	3.81
308.15 K, x1 = 0.8444	1424.52	1544	3.85
308.15 K, x1 = 0.907	1440.98	1547	3.88
308.15 K, x1 = 0.9524	1452.15	1552	3.92
308.15 K, x1 = 1	1463.5	1556	3.94
313.15 K, x1 = 0.013	1089.1	1447	1.64
313.15 K, x1 = 0.0356	1102.07	1449	1.75
313.15 K, x1 = 0.0539	1112.21	1452	1.85
313.15 K, x1 = 0.0982	1136.31	1460	2.06
313.15 K, x1 = 0.1259	1150.73	1464	2.17
313.15 K, x1 = 0.1608	1168.35	1471	2.31
313.15 K, x1 = 0.1982	1186.62	1476	2.45
313.15 K, x1 = 0.2422	1207.12	1483	2.56
313.15 K, x1 = 0.2956	1230.97	1490	2.7
313.15 K, x1 = 0.3855	1268.16	1501	2.88
313.15 K, x1 = 0.4611	1297.1	1510	3
313.15 K, x1 = 0.545	1326.92	1516	3.08
313.15 K, x1 = 0.6387	1357.69	1525	3.14
313.15 K, x1 = 0.7076	1378.66	1530	3.16
313.15 K, x1 = 0.7823	1400.24	1536	3.18
313.15 K, x1 = 0.8444	1417.09	1540	3.18
313.15 K, x1 = 0.907	1433.37	1545	3.18
313.15 K, x1 = 0.9524	1444.43	1549	3.17
313.15 K, x1 = 1	1455.63	1552	3.16
